Assays:
BTK = target: T1, BTK (Homo sapiens, UniProt Q06187); assay: BTK-GFP protein abundance flow cytometry assay in HEK293A; type: cell-based; conditions: 24 h; for BTK degradation Amax: % protein remaining at the concentration at which maximum degradation is seen, HEK293A; for DC50: concentration at which 50% maximal degradation was observed, HEK293A BTK-GFP sensor cells
T1 construct: the BTK open reading frame (ORF) was first shuttled from a pcDNA-DEST40-BTK vector; expressed in transfected cells; host or cells: HEK293A (Invitrogen R70507), lentiviral transduction, blasticidin selection
How it was run: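 HEK293A cells stably expressing bicistronic BTK-GFP-iresRFP were treated 24 h at 37° C with 10-point 1:3 dilutions from 10 μM, DMSO at 0.1%. GFP was read by flow cytometry as median of 5,000 single cells, scaled between RFP-only cells (0%) and DMSO controls (100%). DC50 = concentration at 50% degradation; Amax = % protein remaining at maximal degradation.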

CRBN [1] = target: T2, CRBN (Homo sapiens, UniProt Q96SW2); assay: CRBN displacement assay Format 1 (fluorescence polarization, BodipyFL-lenalidomide probe Compound HH); type: binding
How it was run: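 Compound and CRBN protein (nominally 100 nM) were preincubated for 45 min at room temperature before a 5 nM BodipyFL-lenalidomide probe started competition, with 0.9% DMSO final. Polarization was measured 45 min later, exciting at 485 nm and reading 520 nm. AC50 came from a logistic fit with Hill coefficient.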

CRBN [2] = target: T2, CRBN; assay: CRBN displacement assay Format 2a (fluorescence polarization, 1536-well, Envision reader); type: binding
How it was run: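 Competition format: compound first equilibrated with CRBN protein (nominally 40 nM) for 45 min at RT, then challenged 45 min with 5 nM BodipyFL-conjugated lenalidomide tracer. FP measured at 480 nm excitation/535 nm emission; AC50 derived by four-parameter logistic fit of %-saturation.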

CRBN [3] = target: T2, CRBN; assay: CRBN displacement assay Format 2b (as 2a, quadruplicate, PHERAstar reader); type: binding
Procedure: Assay conditions are similar to Format 2a with the exception of • a. The assay run in quadruplicate • b. PHERAstar reader (BMG Labtech, Offenburg, Germany) was used instead of an Envision reader • c. For the determination of AC50 values, assays were performed at room temperature in 1536-well plates with a total assay volume of […] per well. The test compounds were dissolved and diluted in 100% DMSO. For the assays, 30 nL of DMSO or compound solution were added per well, followed by the addition of 3 μL protein solution (80 nM protein in 1× assay buffer).

[4] = concentration at which 50% of reference probe Compound HH is displaced, 40 nM protein, 5 nM probe, read-out: CRBN AC50 [μM] Format 2a
[5] = concentration at which 50% of reference probe Compound HH is displaced, quadruplicate, read-out: CRBN AC50 [μM] Format 2b

T1 sequence (Q06187 whole entry): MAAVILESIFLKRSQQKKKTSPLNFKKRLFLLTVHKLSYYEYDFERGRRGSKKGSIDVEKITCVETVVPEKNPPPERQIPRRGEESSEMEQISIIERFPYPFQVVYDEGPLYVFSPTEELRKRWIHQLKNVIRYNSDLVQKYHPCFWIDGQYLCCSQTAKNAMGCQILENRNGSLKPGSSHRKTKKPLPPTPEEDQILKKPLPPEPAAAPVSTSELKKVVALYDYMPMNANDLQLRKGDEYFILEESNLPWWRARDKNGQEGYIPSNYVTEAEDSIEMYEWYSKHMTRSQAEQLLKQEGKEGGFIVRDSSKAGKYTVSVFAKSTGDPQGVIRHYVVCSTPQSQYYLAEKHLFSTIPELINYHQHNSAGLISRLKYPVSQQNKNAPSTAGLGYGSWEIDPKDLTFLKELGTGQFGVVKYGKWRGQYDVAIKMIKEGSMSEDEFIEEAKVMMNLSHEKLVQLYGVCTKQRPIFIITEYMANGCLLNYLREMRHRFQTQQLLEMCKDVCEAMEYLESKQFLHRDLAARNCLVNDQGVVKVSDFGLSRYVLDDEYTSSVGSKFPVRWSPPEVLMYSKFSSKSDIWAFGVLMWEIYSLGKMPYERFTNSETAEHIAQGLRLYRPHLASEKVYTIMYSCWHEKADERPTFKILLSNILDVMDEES
T2 sequence (Q96SW2 whole entry): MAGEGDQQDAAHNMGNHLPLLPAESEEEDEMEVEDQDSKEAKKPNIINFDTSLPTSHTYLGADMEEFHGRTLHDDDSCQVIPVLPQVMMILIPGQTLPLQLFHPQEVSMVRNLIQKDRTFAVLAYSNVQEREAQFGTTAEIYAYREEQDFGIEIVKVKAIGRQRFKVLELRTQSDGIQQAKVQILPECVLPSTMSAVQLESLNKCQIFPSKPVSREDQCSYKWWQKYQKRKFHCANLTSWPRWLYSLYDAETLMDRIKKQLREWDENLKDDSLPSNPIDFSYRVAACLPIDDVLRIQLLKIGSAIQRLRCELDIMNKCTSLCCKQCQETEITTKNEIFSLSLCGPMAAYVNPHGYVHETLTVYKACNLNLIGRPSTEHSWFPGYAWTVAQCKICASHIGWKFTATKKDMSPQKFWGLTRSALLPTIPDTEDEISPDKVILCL

Q: Which “BTK degradation Amax” value (BTK) does the source give for `Cc1c(NC(=O)c2ccc(C(C)(C)O)cc2F)cc(F)cc1-c1ncnc2[nH]c(-c3ccc(CN4CCC5(CC4)CN(CCCc4ccc(N6CCC(=O)NC6=O)cc4)CCO5)cc3)cc12` [Compound 20, N-(3-(6-(4-((4-(3-(4-(2,4-Dioxotetrahydropyrimidin-1(2H)-yl)phenyl)propyl)-1-oxa-4,9-diazaspiro[5.5]undecan-9-yl)methyl)phenyl)-7H-pyrrolo[2,3-d]pyrimidin-4-yl)-5-fluoro-2-methylphenyl)-2-fluoro-4-(2-hydroxypropan-2-yl)benzamide] here?
A: Its value is 37.1%.

Q: And the DC50 (BTK)?
A: Its DC50 is 0.0277 µM.

Q: And the AC50 (CRBN [1])?
A: Its AC50 is over 100 µM.

Q: `Cc1c(NC(=O)c2ccc(C(C)(C)O)cc2F)cc(F)cc1-c1ncnc2[nH]c(-c3ccc(CN4CCN(C(=O)N5CCN(CCC#Cc6ccc(N7CCC(=O)NC7=O)cc6)CC5)CC4)cc3)cc12` [Compound 23, N-(3-(6-(4-((4-(4-(4-(4-(2,4-Dioxotetrahydropyrimidin-1(2H)-yl)phenyl)but-3-yn-1-yl)piperazine-1-carbonyl)piperazin-1-yl)methyl)phenyl)-7H-pyrrolo[2,3-d]pyrimidin-4-yl)-5-fluoro-2-methylphenyl)-2-fluoro-4-(2-hydroxypropan-2-yl)benzamide] was tested. Which “BTK degradation Amax” value (BTK) did it give?
A: Its value is 9.6%.

Q: And the DC50 (BTK)?
A: The DC50 was 0.0028 µM.

Q: What about the AC50 (CRBN [1]) of the same compound?
A: The AC50 was over 50.5 µM.

Q: Which results are given for `COc1cc(C(=O)N2CCC(OC3CCN(Cc4ccc(-c5cc6c(-c7cc(F)cc(NC(=O)c8ccc(C(C)(C)O)cc8F)c7C)ncnc6[nH]5)cc4)CC3)CC2)ccc1N1CCC(=O)NC1=O` [Compound 24, N-(3-(6-(4-((4-((1-(4-(2,4-Dioxotetrahydropyrimidin-1(2H)-yl)-3-methoxybenzoyl)piperidin-4-yl)oxy)piperidin-1-yl)methyl)phenyl)-7H-pyrrolo[2,3-d]pyrimidin-4-yl)-5-fluoro-2-methylphenyl)-2-fluoro-4-(2-hydroxypropan-2-yl)benzamide]?
A: BTK degradation Amax (BTK): 55.7%; DC50 (BTK): 0.024 µM; AC50 (CRBN [1]): 5.19 µM

Q: What does the source list for `COc1cc(C(=O)NCCCCN2CCN(Cc3ccc(-c4cc5c(-c6cc(F)cc(NC(=O)c7ccc(C(C)(C)O)cc7F)c6C)ncnc5[nH]4)cc3)CC2)ccc1N1CCC(=O)NC1=O` [Compound 25, N-(3-(6-(4-((4-(4-(4-(2,4-dioxotetrahydropyrimidin-1(2H)-yl)-3-methoxybenzamido)butyl)piperazin-1-yl)methyl)phenyl)-7H-pyrrolo[2,3-d]pyrimidin-4-yl)-5-fluoro-2-methylphenyl)-2-fluoro-4-(2-hydroxypropan-2-yl)benzamide]?
A: BTK degradation Amax (BTK): 51.1%; DC50 (BTK): > 3.33 µM; AC50 (CRBN [1]): 4.47 µM

Q: Which results are given for `Cc1c(NC(=O)c2ccc(C(C)(C)O)cc2F)cc(F)cc1-c1ncnc2[nH]c(-c3ccc(CN4CCN(CCNC(=O)COc5ccc(N6CCC(=O)NC6=O)cc5)CC4)cc3)cc12` [Compound 26, N-(3-(6-(4-((4-(2-(2-(4-(2,4-Dioxotetrahydropyrimidin-1(2H)-yl)phenoxy)acetamido)ethyl)piperazin-1-yl)methyl)phenyl)-7H-pyrrolo[2,3-d]pyrimidin-4-yl)-5-fluoro-2-methylphenyl)-2-fluoro-4-(2-hydroxypropan-2-yl)benzamide]?
A: BTK degradation Amax (BTK): 10.6%; DC50 (BTK): 0.0112 µM; AC50 (CRBN [1]): 3.92 µM

Q: With `Cc1c(NC(=O)c2ccc(C(C)(C)O)cc2F)cc(F)cc1-c1ncnc2[nH]c(C3=CCN(C(=O)CCCCN4CCC(Oc5ccc(N6CCC(=O)NC6=O)cc5)CC4)CC3)cc12` [Compound 27, N-(3-(6-(1-(5-(4-(4-(2,4-Dioxotetrahydropyrimidin-1(2H)-yl)phenoxy)piperidin-1-yl)pentanoyl)-1,2,3,6-tetrahydropyridin-4-yl)-7H-pyrrolo[2,3-d]pyrimidin-4-yl)-5-fluoro-2-methylphenyl)-2-fluoro-4-(2-hydroxypropan-2-yl)benzamide] as the compound, how does the “BTK degradation Amax” value (BTK) read?
A: Its value is 21.7%.

Q: What about the DC50 (BTK) of the same compound?
A: Its DC50 is 0.022 µM.

Q: What about the AC50 (CRBN [1]) of the same compound?
A: The AC50 was 1.94 µM.

Q: `Cc1c(NC(=O)c2ccc(C(C)(C)O)cc2F)cc(F)cc1-c1ncnc2[nH]c(-c3ccc(CNCCN4CCC(Oc5ccc(N6CCC(=O)NC6=O)cc5)CC4)cc3)cc12` [Compound 29, N-(3-(6-(4-(((2-(4-(4-(2,4-dioxotetrahydropyrimidin-1(2H)-yl)phenoxy)piperidin-1-yl)ethyl)amino)methyl)phenyl)-7H-pyrrolo[2,3-d]pyrimidin-4-yl)-5-fluoro-2-methylphenyl)-2-fluoro-4-(2-hydroxypropan-2-yl)benzamide] was tested. Which “BTK degradation Amax” value (BTK) did it give?
A: Its value is 40.5%.

Q: And the DC50 (BTK)?
A: Its DC50 is 0.0402 µM.

Q: And the AC50 (CRBN [1])?
A: The AC50 was 2.39 µM.

Q: `Cc1c(NC(=O)c2ccc(C(C)(C)O)cc2F)cc(F)cc1-c1ncnc2[nH]c(-c3ccc(CN4CCC(OC5CCN(CCn6cccc(CN7CCC(=O)NC7=O)c6=O)CC5)CC4)cc3)cc12` [Compound 33, N-(3-(6-(4-((4-((1-(2-(3-((2,4-dioxotetrahydropyrimidin-1(2H)-yl)methyl)-2-oxopyridin-1(2H)-yl)ethyl)piperidin-4-yl)oxy)piperidin-1-yl)methyl)phenyl)-7H-pyrrolo[2,3-d]pyrimidin-4-yl)-5-fluoro-2-methylphenyl)-2-fluoro-4-(2-hydroxypropan-2-yl)benzamide] was tested. Which “BTK degradation Amax” value (BTK) did it give?
A: The value was 6.1%.

Q: And the DC50 (BTK)?
A: The DC50 was 0.0021 µM.

Q: What about the AC50 (CRBN [1]) of the same compound?
A: The AC50 was 0.915 µM.

Q: What does the source list for `Cc1c(NC(=O)c2ccc(C(C)(C)O)cc2F)cc(F)cc1-c1ncnc2[nH]c(-c3ccc(CNCCCCOCCn4cccc(CN5CCC(=O)NC5=O)c4=O)cc3)cc12` [Compound 34, N-(3-(6-(4-(((4-(2-(3-((2,4-dioxotetrahydropyrimidin-1(2H)-yl)methyl)-2-oxopyridin-1(2H)-yl)ethoxy)butyl)amino)methyl)phenyl)-7H-pyrrolo[2,3-d]pyrimidin-4-yl)-5-fluoro-2-methylphenyl)-2-fluoro-4-(2-hydroxypropan-2-yl)benzamide]?
A: BTK degradation Amax (BTK): 40.3%; DC50 (BTK): 0.642 µM; AC50 (CRBN [1]): 0.736 µM

Q: For `Cc1c(NC(=O)N2C[C@H](CC(C)C)[C@@H](O)C2)cc(F)cc1-c1ncnc2[nH]c(-c3ccc(CN4CCC(OC5CCN(CCn6cccc(CN7CCC(=O)NC7=O)c6=O)CC5)CC4)cc3)cc12` [Compound 35, (3R,4S)—N-(3-(6-(4-((4-((1-(2-(3-((2,4-dioxotetrahydropyrimidin-1(2H)-yl)methyl)-2-oxopyridin-1(2H)-yl)ethyl)piperidin-4-yl)oxy)piperidin-1-yl)methyl)phenyl)-7H-pyrrolo[2,3-d]pyrimidin-4-yl)-5-fluoro-2-methylphenyl)-3-hydroxy-4-isobutylpyrrolidine-1-carboxamide], which “BTK degradation Amax” value (BTK) is on record?
A: The value was 6.6%.

Q: What about the DC50 (BTK) of the same compound?
A: The DC50 was 0.0021 µM.

Q: What about the AC50 (CRBN [1]) of the same compound?
A: Its AC50 is 0.742 µM.

Q: For `CCOC(=O)Cc1cncc(N2CCC(=O)NC2=O)c1` [ILB-71, Ethyl 2-(5-(2,4-dioxotetrahydropyrimidin-1(2H)-yl)pyridin-3-yl)acetate], which AC50 (CRBN [2]; [4]) is on record?
A: Its AC50 is 6.01 µM.

Q: What about the AC50 (CRBN [3]; [5]) of the same compound?
A: The AC50 was 8 µM.

Q: `COC(=O)c1cncc(N2CCC(=O)NC2=O)c1` [ILB-72, Methyl 5-(2,4-dioxotetrahydropyrimidin-1(2H)-yl)nicotinate] was tested. Which AC50 (CRBN [2]; [4]) did it give?
A: The AC50 was 29.4 µM.

Q: And the AC50 (CRBN [3]; [5])?
A: Its AC50 is 18 µM.

Q: `O=C1CCN(c2cncc(Cl)c2)C(=O)N1` [ILB-73, 1-(5-Chloropyridin-3-yl)dihydropyrimidine-2,4(1H,3H)-dione] was tested. Which AC50 (CRBN [2]) did it give?
A: The AC50 was 15 µM.

Q: And the AC50 (CRBN [3])?
A: Its AC50 is 11.9 µM.

Q: How did the AC50 (CRBN [2]; [4]) turn out when `C=C(C)c1cncc(N2CCC(=O)NC2=O)c1` [ILB-74, 1-(5-(Prop-1-en-2-yl)pyridin-3-yl)dihydropyrimidine-2,4(1H,3H)-dione] was run?
A: The AC50 was 6.28 µM.

Q: What about the AC50 (CRBN [3]; [5]) of the same compound?
A: The AC50 was 4.61 µM.

Q: For `CC(O)c1ccc(N2CCC(=O)NC2=O)cn1` (stereo not shown) [ILB-75, 1-(6-(1-Hydroxyethyl)pyridin-3-yl)dihydropyrimidine-2,4(1H,3H)-dione], which AC50 (CRBN [2]) is on record?
A: Its AC50 is over 50 µM.

Q: What about the “CRBN Amax* (% at 50 μM) Format 2a” value (CRBN [2]; greatest effect as % displacement of the reference probe at the highest concentration tested (50 μM), given where AC50 >50 μM, 45 min) of the same compound?
A: The value was 40%.

Q: And the AC50 (CRBN [3])?
A: Its AC50 is 28.7 µM.

Q: How did the AC50 (CRBN [2]; [4]) turn out when `O=C1CCN(c2cncc(Br)c2)C(=O)N1` [ILB-76, 1-(5-Bromopyridin-3-yl)dihydropyrimidine-2,4(1H,3H)-dione] was run?
A: The AC50 was 8.09 µM.

Q: And the AC50 (CRBN [3]; [5])?
A: Its AC50 is 15.3 µM.

Q: How did the AC50 (CRBN [2]; [4]) turn out when `O=C1CCN(c2cncc(O)c2)C(=O)N1` [ILB-77, 1-(5-Hydroxypyridin-3-yl)dihydropyrimidine-2,4(1H,3H)-dione] was run?
A: The AC50 was 0.5 µM.

Q: What about the AC50 (CRBN [3]; [5]) of the same compound?
A: Its AC50 is 0.3 µM.

Q: For `CCOC(=O)c1cncc(N2CCC(=O)NC2=O)c1` [ILB-78, Ethyl 5-(2,4-dioxotetrahydropyrimidin-1(2H)-yl)nicotinate], which AC50 (CRBN [2]; [4]) is on record?
A: The AC50 was 5.72 µM.

Q: What about the AC50 (CRBN [3]; [5]) of the same compound?
A: Its AC50 is 5.07 µM.

Q: What does the source list for `O=C1CCN(c2cn[nH]c2)C(=O)N1` [ILB-79, 1-(1H-Pyrazol-4-yl)dihydropyrimidine-2,4(1H,3H)-dione]?
A: AC50 (CRBN [2]): 7.15 µM; AC50 (CRBN [3]): 6.78 µM
